Experimental findings from patent US20240050409A1, “Methods and Compositions for Treating Psychotic Disorders” (SOUND PHARMACEUTICALS INCORPORATED, priority 2014, published 2024) are described below.

“Also recorded” adds a separate entry of the source.

The test system of the experiment is PV immunoreactive interneurons (PVI) in the PFC of NVHL rats. Kind of experiment: PV interneuron counts (stereology) in PFC of NVHL rats. It counts as in vivo, Sprague-Dawley rats. To be noted: adult (P61) NVHL rats; drinking water 900 mg/l, P5 to P50. As for the experimental part:
This example describes reversal of prepulse inhibition through treatment of ebselen. One of the most replicated findings in schizophrenia research is a reduction of markers associated with cortical inhibitory interneurons (Lewis et al., 2012). […] Whether parvalbumin (PV) positive interneurons in the PFC, including the dorsal prelimbic and anterior cingulate cortex (ACC), are altered in NVHL rats using unbiased stereological counting techniques was assessed. Between postnatal day (P) 21 and P61, the number of PV immunoreactive interneurons (PVI) increased in sham-operated rats, but not in NVHL rats as illustrated in FIGS. 7A and 1B.
Animals: Timed-pregnant Sprague-Dawley rats were obtained at gestational days 13-15 from Charles River (Wilmington, MA) and were individually housed with free access to food and water in a temperature- and humidity-controlled environment with a 12:12h light/dark cycle (lights on at 7:00 AM). When pups reached P5, half of the dams received NAC in their drinking water. Pups were left undisturbed until P7-9 when healthy offspring were randomly separated and received either NVHL or sham surgery. At P21, male and female pups were either transcardially perfused with 4% paraformaldehyde for immunocytochemistry or weaned and housed in groups of two to three, counterbalanced across lesion status. NAC treatment lasted throughout adolescence until P50. […]

Turning to `CC(=O)N[C@@H](CS)C(=O)O` [NAC, N-acetyl cysteine], the “effect on PVI count reduction in PFC” value is recorded as “prevented; also recorded: rescued”.
